Experimental data published in US5700445A, “N-methyl piperazine compounds having dopamine receptor affinity” (Allelix Biopharmaceuticals, Inc., priority 1994, dated 1997).

How the values were obtained:
[1] = biological target: T1, human D2 receptor (short isoform) (Homo sapiens, UniProt P14416); assay: D2 receptor binding assay (displacement of 3H-spiperone), reported as D2/D4 selectivity; conditions: ratio D2/D4; 3H-spiperone 0.25 nM; D2 short isoform vs D4.2
T1 construct: 3H-spiperone displacement
T1 sequence (P14416 with tags, fused parts or gaps DEL242-270): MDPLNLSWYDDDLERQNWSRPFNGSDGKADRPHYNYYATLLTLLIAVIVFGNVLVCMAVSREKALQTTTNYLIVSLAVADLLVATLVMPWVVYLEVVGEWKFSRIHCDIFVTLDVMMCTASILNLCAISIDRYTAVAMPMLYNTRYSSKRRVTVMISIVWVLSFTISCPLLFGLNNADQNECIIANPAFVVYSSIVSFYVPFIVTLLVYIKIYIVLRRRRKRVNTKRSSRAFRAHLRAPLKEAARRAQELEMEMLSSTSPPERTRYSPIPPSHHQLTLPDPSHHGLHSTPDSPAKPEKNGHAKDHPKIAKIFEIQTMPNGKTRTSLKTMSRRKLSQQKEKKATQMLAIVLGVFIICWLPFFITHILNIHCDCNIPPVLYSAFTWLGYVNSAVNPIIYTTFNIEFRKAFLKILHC
Method: (§1) The potency of the test compound to reduce ^3 H-spiperone binding directly correlated to its binding affinity for the receptor.
CH4 C1 (rat pituitary) cells stably transfected with the human D2 receptor (short isoform) were grown in CO2 independent media in roller bottles (1500 cm^2) for 10 days. 100 μM ZnSO4 was added to the cells (the D2 promoter being zinc inducible). After 16 hours, fresh media was added to allow the cells to recover for 24 hours. The cells were harvested using versine and then centrifuged in a Sorval centrifuge for 10 minutes, at 5000 rpm (GS3 rotor). Pellets were quickly frozen in liquid nitrogen and stored at -80° C. until used in the binding assays. When used in the assay, cells were thawed on ice for 20 minutes. […] The receptor protein concentration was determined using the Pierce BCA assay.
(§2) The tubes were vortexed and incubated at room temperature for 90 minutes. The binding reaction was stopped by filtering using a Brandell Cell Harvester. The samples were filtered under vacuum over glass fibre filters (Whatman GF/B) presoaked for 2 hours in 0.3% polyethylenimine (PEI) in 50 mM Tris buffer (pH 7.4). The filters were then washed 3 times with 5 ml ice cold 50 mM Tris buffer (pH 7.4). Individual filter disks were put in scintillation vials (Biovials, Bechman). Ready Protein Plus liquid scintillant (5 ml, Beckman) was added and the vials counted by liquid scintillation spectrophotometry (Beckman LSC 6500) after equilibrating for three hours at room temperature to determine total binding (BT).
This assay employed the same procedures as the non-specific binding assay for D4 with the exception that 2 μM (final conc.) of (-) sulpiride (Research Chemicals Inc.) was used in place of dopamine.
(§3) The tubes were vortexed and incubated at room temperature for 90 minutes at which time the binding reaction was stopped by filtering. The filters were washed and counted using the same procedure as in the total binding assay described above to give the displacement binding value (BD).
(§4) IC50 was determined from an inhibition response curve, logit-log plot of %B/B0 vs concentration of test compound. Ki was calculated by the Cheng and Prustoff transformation: […]
where [L] is the concentration of ^3 H-spiperone used in the assay and KD is the dissociation constant of ^3 H-spiperone determined independently under the same binding conditions.

[2] = biological target: T2, human D4 receptor (D4.2 sub-type) (Homo sapiens, UniProt P21917, DEL265-296); assay: D4 receptor binding assay (displacement of 3H-spiperone); conditions: 3H-spiperone 0.25 nM, cell membranes, Cheng and Prustoff, read-out: D4 AFFINITY Ki
T2 construct: expressed in transfected cells; host or cells: HEK 298 (human embryonic kidney) cells, stably transfected
T2 sequence (P21917 with tags, fused parts or gaps DEL265-296): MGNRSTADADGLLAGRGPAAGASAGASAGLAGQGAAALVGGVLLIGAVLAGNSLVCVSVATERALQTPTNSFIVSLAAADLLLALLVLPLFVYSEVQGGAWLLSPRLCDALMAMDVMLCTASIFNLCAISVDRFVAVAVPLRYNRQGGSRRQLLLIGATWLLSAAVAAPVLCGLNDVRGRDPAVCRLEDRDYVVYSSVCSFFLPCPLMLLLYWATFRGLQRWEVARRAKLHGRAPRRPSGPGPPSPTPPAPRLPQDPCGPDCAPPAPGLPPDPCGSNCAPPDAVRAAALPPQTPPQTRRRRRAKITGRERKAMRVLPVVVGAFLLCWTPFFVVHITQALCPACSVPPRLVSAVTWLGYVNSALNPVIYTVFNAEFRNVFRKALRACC
Method: as §1
The cells were then centrifuged in a Sorval centrifuge for 10 min, 5000 rpm (GS3 rotor) and the pellets quickly frozen in liquid nitrogen and stored at -80° C. until used in binding assay. When used in the assay, cells were thawed on ice for 20 min and then 10 ml of incubation buffer (50 mM Tris, 1 mM EDTA, 4 mM MgCl2, 5 mM KCl, 1.5 mM CaCl2, 120 mM NaCl, pH 7.4) was added. […] Concentration of receptor protein was determined using the Pierce BCA assay.
as §2
The tubes were vortexed and incubated at room temperature for 90 minutes at which time the binding reaction was stopped by filtering. The filters were washed and counted using the same procedure as in the total binding assay described above to give the non-specific binding value (NSB).
as §3, §4

D4 receptor = conditions: background, marketed products; read-out: D4 affinity, Ki; cited from earlier work
human D4 receptors [3] = biological target: T3, human D4 receptors (Homo sapiens, UniProt P21917); assay: Functional agonist assay: decrease in forskolin-stimulated cAMP in D4 stably expressing CHO cells; type: cell-based; conditions: forskolin 10 μM
T3 construct: expressed in transfected cells; host or cells: CHO Pro 5 cells, stably expressing
T3 sequence (P21917 1-419): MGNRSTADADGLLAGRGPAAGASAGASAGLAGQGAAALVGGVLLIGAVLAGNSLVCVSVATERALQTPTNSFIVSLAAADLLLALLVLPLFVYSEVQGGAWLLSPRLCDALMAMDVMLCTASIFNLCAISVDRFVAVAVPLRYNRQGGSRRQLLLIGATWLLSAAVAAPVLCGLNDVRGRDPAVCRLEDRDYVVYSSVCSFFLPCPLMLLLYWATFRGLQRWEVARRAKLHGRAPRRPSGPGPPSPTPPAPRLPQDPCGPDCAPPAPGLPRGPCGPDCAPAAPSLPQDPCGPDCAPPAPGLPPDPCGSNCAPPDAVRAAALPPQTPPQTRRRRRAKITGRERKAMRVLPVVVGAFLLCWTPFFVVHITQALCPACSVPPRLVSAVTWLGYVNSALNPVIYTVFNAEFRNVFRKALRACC
Method: The D4 receptor responds to dopamine and other agonists by reducing adenyl cyclase mediated production of cyclic AMP. Particular test compound 4-chloro-5H-dibenzo[b,e][1,4]diazepine was assayed for its ability to reverse dopamine inhibition of adenyl cyclase by the following procedure. Forskolin was used to elevate the basal adenyl cyclase activity.
(§5) CHO Pro 5 cells stably expressing human D4 receptors were plated in 6 well plates in DMEM (Dulbecco's Modified Eagle Medium)/F12(Nutrient Mixture F12 (Ham)) media with 10% FCS (fetal calf serum) and G418 (Geneticen Disulfate), and incubated at 37° C. in a CO2 incubator. The cells were allowed to grow to about 70% confluence before use in the assay.
To D4 stably expressing CHO cells prepared as previously described were added test compound and forskolin (10 μM final concentration). The cells were incubated, extracted and measured for cAMP concentration as above. Agonist activity of a test compound would result in a decrease in cAMP concentration compared to cells treated with forskolin (Cf) only.

human D4 receptors [4] = biological target: T3, human D4 receptors; assay: Functional antagonist assay: reversal of dopamine inhibition of forskolin-stimulated adenyl cyclase (cAMP) in CHO Pro 5 cells; type: cell-based; conditions: dopamine and forskolin both 10 μM, read-out: % REVERSAL OF DOPAMINE EFFECT
Method: The D4 receptor responds to dopamine and other agonists by reducing adenyl cyclase mediated production of cyclic AMP. […] Forskolin was used to elevate the basal adenyl cyclase activity.
as §5
Basal adenyl cyclase activity was determined from wells with only SFM+IBMX media added.
The cells were then incubated at 37° C. for 30 minutes in a CO2 incubator. Following incubation the media was aspirated from each well and then washed once with 2 mL of PBS (phosphate buffered saline). […] The cells from each well were then scraped and transferred into individual Eppendorf tubes. […]
Total inhibition (I0) of forskolin-stimulated adenyl cyclase activity by dopamine was determined as the difference in concentration of cAMP in the forskolin-treated cells (Cf) and dopamine-forskolin treated cells (Cd).
Net inhibition (I) of forskolin-stimulated adenyl cyclase activity by dopamine in the presence of an antagonist was determined as the difference in concentration of cAMP in the forskolin-treated cells (Cf) and test compound, dopamine and forskolin treated cells (C).

Compound	SELECTIVITY FOR D4, D2/D4 [1]	Ki [2] [µM]	further results
CN1CCN(C2=Cc3cc(C#N)ccc3Sc3ccccc32)CC1 [2-cyano-10-(4-methyl-piperazinyl)-dibenzo[b,f]thiepine]	21.4	0.0045	
CN1CCN(C2=Nc3cc(Cl)c(Cl)cc3Nc3c(Cl)cccc32)CC1 [4,7,8-trichloro-11-(4-methyl-1-piperazinyl)-5H-dibenzo[b,e][1,4]diazepine]	18.8		
CN1CCN(C2=Nc3cc(Cl)c(Cl)cc3Nc3ccc(Cl)cc32)CC1 [2,7,8-trichloro-11-(4-methyl-1-piperazinyl)-5H-dibenzo[b,e][1,4]diazepine]	10.7		
CN1CCN(C2=Nc3cc(Cl)ccc3Oc3ccccc32)CC1 [isoloxapine]			Ki (D4 receptor): ~0.02 µM
CN1CCN(C2=Nc3ccccc3Nc3c(Cl)cccc32)CC1 [4-Chloro-11-(4-methyl-1-piperazinyl)-5H-dibenzo[b,e][1,4]diazepine]	187.5	0.0167	dopamine agonist activity (decrease in cAMP compared to cells treated with forskolin) (human D4 receptors [3]): no dopamine agonist activity; inhibition at 1 µM (human D4 receptors [4]; 1 μM test compound): 16%; inhibition at 10 µM (human D4 receptors [4]; 10 μM test compound): 58%
CN1CCN(C2=Nc3ccccc3Oc3c(C#N)cccc32)CC1 [4-cyano-11-(4-methyl-1-piperazinyl)dibenz[b,f][1,4]oxazepine]	64.4		
CN1CCN(C2=Nc3ccccc3Nc3ccc(C(F)(F)F)cc32)CC1 [2-trifluoromethyl-11-(4-methyl-1-piperazinyl)-5H-dibenzo[b,e][1,4]diazepine]		0.0142	
CN1CCN(C2=Nc3ccccc3Nc3cccc(F)c32)CC1 [1-fluoro-11-(4-methyl-1-piperazinyl)-5H-dibenz[b,e][1,4]diazepine]	12.6		
CN1CCN(C2=Nc3ccccc3Oc3c2cccc3[N+](=O)[O-])CC1 [4-nitro-11-(4-methyl-1-piperazinyl)dibenz[b,f][1,4]oxazepine]	21.4		
Cc1cc2c(cc1C)Nc1ccccc1C(N1CCN(C)CC1)=N2 [7,8-dimethyl-11-(4-methyl-1-piperazinyl)-5H-dibenzo[b,e][1,4]diazepine]	10.6		
